Reference: patent publication US20250313560A1, “Novel bicyclic benzylamido pyridine derivatives as SOS1 inhibitors” (Boehringer Ingelheim International GmbH, priority 2024, published 2025)
Like-named read-outs stand apart in the source and are kept apart here.

Columns and labels:
[1] = tested on: ERK phosphorylation in NCI-H358 SOS2 KO cells (KRAS G12C); test: Erk phosphorylation assay; type: cell-based, human; details: EGF stimulated, average of at least two measurements, read-out: pERK IC50
Protocol: Low IC50 values are indicative of high potency of the SOS1 inhibitor compounds in this assay setting.
ERK phosphorylation assays are performed using the following human cell line: • NCI-H358 SOS2 KO (Hofmann, Gmachl, Ramharter et al, Cancer Discov. 2021, 11(1):142-15): human lung cancer with a KRAS G12C mutation;
NCI-H358 SOS2 KO are seeded at 50000 cells per well in 60 μL of DMEM with 2% FBS, in Greiner TC 384 plates. The cells are incubated overnight in an incubator at 37° C. and 5% CO2 in a humidified atmosphere. 60 nL compound solution (10 mM DMSO stock solution) is then added using a Beckman Coulter Labcyte Echo 550 device. After 50 min incubation in the aforementioned incubator, 5 nl EGF are added to each well for a final concentration of approx. 8 ng/mL using a Beckman Coulter Labcyte Echo 550 device and cells are incubated for another 10-15 minutes before lysis. The medium is removed, and the cells are lysed by addition of 20 μL of 1.6-fold lysis buffer from the AlphaLISA SureFire Ultra pERK1/2 (Thr202/Tyr204) Assay Kit with added protease inhibitors. After 20 minutes of incubation at rt with shaking, 6 μL of each lysate sample is transferred to a 384-well Proxiplate and analyzed for pERK (Thr202/Tyr204) with the AlphaLISA SureFire Ultra pERK1/2 (Thr202/Tyr204) Assay Kit. 3 μL Acceptor Mix and 3 μL Donor Mix are added under subdued light and incubated for 2 h at rt in the dark, before the signal is measured on a Perkin Elmer Envision plate reader using 384 AlphaScreen settings for Proxiplates. Data are fitted by iterative calculation with variable hill slope. The sigmoidal curve slope is fitted using a default fitting curve to ascertain IC50 values.
Table 2: Erk Phosphorylation assay. The value indicates an average value of at least two measurements.

[2] = tested on: human hepatocytes; test: Metabolic stability in human hepatocytes; details: 1 μM test compound, 50% human serum, percentage of liver blood flow
Protocol: The metabolic degradation of a test compound is performed with hepatocytes in suspension. After recovery from cryopreservation, human hepatocytes are diluted in Dulbecco's modified eagle medium (supplemented with 3.5 μg glucagon/500 mL, 2.5 mg insulin/500 mL, 3.75 mg hydrocortisone/500 mL, 50% human serum) to obtain a final cell density of 1.0×10^6 cells/mL. Following a preincubation in a cell culture incubator (37° C., 10% CO2), test compound dissolved in DMSO is mixed with the hepatocyte suspension, resulting in a final test compound concentration of 1 μM and a final DMSO concentration of 0.05%.
The cell suspension is incubated at 37° C. (cell culture incubator, horizontal shaker) and samples are removed from the incubation after 0, 0.5, 1, 2, 4 and 6 hours. Samples are quenched with acetonitrile (containing internal standard) and pelleted by centrifugation. The supernatant is transferred to a deep-well plate and prepared for analysis of decline of parent compound by HPLC-MS/MS.
The percentage of remaining test compound is calculated using the peak area ratio (test compound/internal standard) of each incubation time point relative to the time point 0 peak area ratio. The log-transformed data are plotted versus incubation time, and the absolute value of the slope obtained by linear regression analysis is used to estimate in vitro half-life (T1/2).
CL_[sequence]_IN VIVO[mL/min/kg]=(CL_[sequence][μL/min/10^6cells]×hepatocellularity[10^6cells/g liver]×liver factor[g/kg body weight])/1000
Hepatic in vivo blood clearance (CL) is predicted according to the well-stirred liver model considering an average liver blood flow (QH) of 20.7 mL/min/kg:
CL[mL/min/kg]=CL_[sequence]_IN VIVO[mL/min/kg]×hepatic blood flow[mL/min/kg]/(CL_[sequence]_IN VIVO[mL/min/kg]+hepatic blood flow[mL/min/kg])
Results are expressed as percentage of hepatic blood flow:
QH[%]=CL[mL/min/kg]/hepatic blood flow[mL/min/kg])

[3] = molecular target: P450 3A4 (Homo sapiens (Human), UniProt P08684); test: Cytochrome P450 isoenzyme inhibition assay (P450 3A4, midazolam); type: in vitro ADME; details: human liver microsomes, Midazolam as substrate; read-out: CYP3A4 inhibition IC50
Protocol: For the following cytochrome P450 isoenzymes, these substrates and metabolic reactions are monitored: P450 3A4: hydroxylation of Midazolam (MDZ).
The final incubation volume contains TRIS buffer (0.1 M), MgCl2 (5 mM), a certain concentration of human liver microsomes dependent on the P450 isoenzyme measured (P450 3A4: 0.1 mg/ml) and a certain concentration of the individual substrate for each isoenzyme (P450 3A4: Midazolam 5 μM).
The effect of the test compound is determined at five different concentrations in duplicate (e.g. highest concentration 50 μM with subsequent serial 1:4 dilutions) or without test compound (high control). Following a short preincubation period, reactions are started with the cofactor (NADPH, 1 mM) and stopped by cooling the incubation down to 8° C. and subsequently by addition of one volume of ACN. An internal standard solution—usually the stable isotope of the formed metabolite—is added after quenching of incubations. Peak area analyte (=metabolite formed) and internal standard is determined by LC-MS/MS. The resulting peak area ratio analyte to internal standard in these incubations is compared to a control activity containing no test compound. Within each of the assay runs, the IC50 of a positive control inhibitor dependent on the P450 isoenzyme measured (P450 3A4: ketoconazole) is determined. The assay results are plotted against compound concentrations to calculated IC50 values (half maximal inhibitory concentrations) for inhibitory compounds utilizing Software IDBS E-WorkBook.
Table 4: Inhibition of P450 isoenzyme 3A^4.

[4] = molecular target: CYP3A4 (Homo sapiens (Human), UniProt P08684); test: Mechanism-based inhibition of CYP3A4 assay (MBI 3A4); type: in vitro ADME; details: human liver microsomes, midazolam substrate, hydroxy-midazolam formation after 30 min preincubation relative to 0 min; for inhibition at 30 min: human, probe midazolam 15 μM (hydroxy-midazolam formation), read-out: MBI inhibition % ctrl. [%] with MDZ
Protocol: Mechanism-Based Inhibition of CYP3A4 assay (MBI 3A4): The mechanism-based inhibition towards CYP3A4 is assayed in human liver microsomes with midazolam as substrate. The test compounds and water control (wells w/o test compound) are preincubated in presence of NADPH (1 mM) with human liver microsomes (0.2 mg/mL) at a concentration of 0, 5 and 25 μM for 0, 10 and 30 min. After preincubation, the incubate is diluted 1:10 (to 0.02 mg/mL) and the substrate midazolam (15 μM) is added for the main incubation (10 min). The main incubation is quenched with ACN and the formation of hydroxy-midazolam is quantified via LC/MS-MS. The formation of hydroxy-midazolam from the 30 min preincubation relative to the formation from the 0 min preincubation is used as a readout. Values of less than 100% mean that the substrate midazolam is metabolized to a lower extent upon 30 min preincubation compared to 0 min preincubation. In general, low effects upon 30 min preincubation are desired (corresponding to values close to 100%/not different to the values determined with water control).
Table 5: Mechanism-based inhibition of P450 isoenzyme 3A4 with midazolam as substrate.

[5] = molecular target: SOS1 and KRAS G12C (Homo sapiens (Human), UniProt Q07889); test: KRAS::SOS1 AlphaScreen binding assay (KRAS G12C); details: average of at least two measurements
Protocol: (§1) Low IC50 values are indicative of high potency of the SOS1 inhibitor compound in this assay setting:
(§2) • GST-tagged SOS1 (564_1049_GST_TEV_ECO) produced in-house • 6xHis-Tev-K-RasG12D/G12C(1-169)Avi produced in-house • GDP (Sigma Cat No G7127) • AlphaLISA Glutathione Acceptor Beads (PerkinElmer, Cat No AL109) • AlphaScreen Streptavidin Donor Beads (PerkinElmer Cat No 6760002) • Assay plates: Proxiplate-384 PLUS, white (PerkinElmer, Cat No 6008289)
(§3) [formula] • KRAS::SOS1 GDP mix: • 7.5 nM (final assay concentration) K-RasG12C, 10 nM (final assay concentration) K-RasG12D, 10 μM (final assay concentration) GDP and 5 nM (final assay concentration) GST-SOS1 are mixed in assay buffer prior to use and kept at rt. Bead mix: • AlphaLISA Glutathione Acceptor Beads and AlphaScreen Streptavidin Donor Beads are mixed in the dark in assay buffer at a concentration of 10 μg/mL (final assay concentration) each prior to use and kept at rt.
(§4) Compounds are diluted to a final start concentration of 100 μM and are tested in duplicate. Assay-ready plates (ARPs) are generated using an Access Labcyte Workstation with a Labcyte Echo 550 or 555 acoustic dispenser. For compound a start concentration of 100 μM, 150 nL of compound solution is transferred per well in 11 concentrations in duplicate with serial 1:5 dilutions.
(§5) The assay is run using a fully automated robotic system in a darkened room below 100 Lux. 10 μL of KRAS::SOS1 GDP mix is added into columns 1-24 to the 150 nL of compound solution (final dilution in the assay 1:100, final DMSO concentration 1%).
(§6) After a 30 minute incubation time, 5 μL of bead mix is added into columns 1-23. Plates are kept at rt in a darkened incubator. After a further 60 minutes incubation, the signal is measured using a PerkinElmer Envision HTS Multilabel Reader using the AlphaScreen specifications from PerkinElmer. Each plate contains the following controls:
(§7) diluted DMSO+KRAS::SOS1 GDP mix+bead mix
(§8) diluted DMSO+KRAS::SOS1 GDP mix
(§9) Result calculation: IC50 values are calculated and analyzed using a 4 parametric logistic model.
(§10) Table 1: Inhibition values for KRAS G12C as well as for KRAS G12D. […] The value indicates an average value of at least two measurements.

[6] = molecular target: SOS1 and KRAS G12D (Homo sapiens (Human), UniProt Q07889); test: KRAS::SOS1 AlphaScreen binding assay (KRAS G12D); details: average of at least two measurements
Protocol: as §1, §2, §3, §4, §5, §6, §7, §8, §9, §10

[7] = Homo sapiens, NCI-H358, NCI-H358 SOS2 KO cells

SOS1 and KRAS G12C, sequence (Q07889 564-1049, stated change not applied): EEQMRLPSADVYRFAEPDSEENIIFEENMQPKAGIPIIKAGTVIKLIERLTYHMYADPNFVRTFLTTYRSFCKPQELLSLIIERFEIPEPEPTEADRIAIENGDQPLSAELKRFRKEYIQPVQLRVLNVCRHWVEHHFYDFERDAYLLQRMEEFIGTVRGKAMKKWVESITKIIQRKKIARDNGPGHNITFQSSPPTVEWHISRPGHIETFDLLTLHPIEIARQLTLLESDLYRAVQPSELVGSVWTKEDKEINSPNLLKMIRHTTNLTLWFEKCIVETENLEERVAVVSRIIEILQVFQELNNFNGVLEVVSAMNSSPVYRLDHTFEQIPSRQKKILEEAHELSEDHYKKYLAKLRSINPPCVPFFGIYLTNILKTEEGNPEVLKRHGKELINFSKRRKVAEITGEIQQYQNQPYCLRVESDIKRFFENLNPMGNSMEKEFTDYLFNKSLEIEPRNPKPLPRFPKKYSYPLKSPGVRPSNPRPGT
SOS1 and KRAS G12D, sequence (Q07889 564-1049, stated change not applied): as above
P450 3A4, sequence (P08684 whole entry): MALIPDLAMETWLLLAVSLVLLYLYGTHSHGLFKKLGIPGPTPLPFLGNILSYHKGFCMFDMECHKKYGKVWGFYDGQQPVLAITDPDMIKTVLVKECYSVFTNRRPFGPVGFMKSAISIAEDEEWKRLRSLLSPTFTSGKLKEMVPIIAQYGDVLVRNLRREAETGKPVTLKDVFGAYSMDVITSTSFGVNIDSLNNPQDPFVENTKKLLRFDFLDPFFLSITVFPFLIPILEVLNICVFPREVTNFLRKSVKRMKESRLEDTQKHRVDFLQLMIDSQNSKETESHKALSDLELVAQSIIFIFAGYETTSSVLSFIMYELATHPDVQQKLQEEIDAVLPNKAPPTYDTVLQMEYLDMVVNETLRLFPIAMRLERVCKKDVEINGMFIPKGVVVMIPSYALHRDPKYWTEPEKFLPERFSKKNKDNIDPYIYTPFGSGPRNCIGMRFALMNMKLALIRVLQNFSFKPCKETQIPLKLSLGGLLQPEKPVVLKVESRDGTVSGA
CYP3A4, sequence (P08684 whole entry): as above

| Compound | IC50 ([1]; NCI-H358 SOS2 KO cells) [nM] | Hepatic clearance - QH[%] in human hepatocytes [2] [%] | IC50 [3] [nM] | inhibition at 30 min [4] [%] | IC50 [5] [nM] | IC50 [6] [nM] | IC50 [1, 7] [nM] | MBI inhibition % ctrl. [%] with MDZ [4] [%] |
| --- | --- | --- | --- | --- | --- | --- | --- | --- |
| C[C@@H](NC(=O)c1cc(N2CCC(N3CCCC(O)CC3)CC2)c2ncnn2c1)c1cccc(C(F)F)c1F (single isomer, unassigned) [Example E17b] | 201 | 30 | > 50000 | 98 | 38 | 32 | – | – |
| C[C@@H](NC(=O)c1cc(N2CCC(O)(C3CCCN3)CC2)c2ncnn2c1)c1cccc(C(F)F)c1F (single isomer, unassigned) [Example E38a] | – | 10 | > 50000 | 94 | 66 | 45 | 112 | – |
| C[C@@H](NC(=O)c1cc(N2CCC(O)(C3CCCN3)CC2)c2ncnn2c1)c1cccc(C(F)F)c1F (single isomer, unassigned) [Example E38b] | 217 | 11 | > 50000 | – | 59 | 41 | – | 86 |
| C[C@@H](NC(=O)c1cc(N2CCC(N3CCCC(O)CC3)CC2)c2ncnn2c1)c1cccc(C(F)(F)F)c1F (single isomer, unassigned) [Example E43a] | 46 | 25 | > 50000 | 91 | 42 | 40 | – | – |
| C[C@@H](NC(=O)c1cc(N2CCC(N3CCCC(C)(O)C3)CC2)c2ncnn2c1)c1cccc(C(F)(F)F)c1F (single isomer, unassigned) [Example E47a] | – | 30 | > 50000 | 97 | 96 | 99 | 162 | – |
| C[C@@H](NC(=O)c1cc(N2CCC(N3CCCC(C)(O)C3)CC2)c2ncnn2c1)c1cccc(C(F)(F)F)c1F (single isomer, unassigned) [Example E47b] | 198 | 28 | > 50000 | – | 41 | 45 | – | 88 |
| C[C@@H](NC(=O)c1cc(N2CCC(NC3COCC3O)CC2)c2ncnn2c1)c1cccc(C(F)F)c1F (single isomer, unassigned) [Example cis-E16a] | – | 32 | > 50000 | 92 | 45 | 41 | 320 | – |
| C[C@@H](NC(=O)c1cc(N2CCC(NC3COCC3O)CC2)c2ncnn2c1)c1cccc(C(F)F)c1F (single isomer, unassigned) [Example cis-E16b] | 316 | 24 | > 50000 | – | 26 | 19 | – | 87 |
| C[C@@H](NC(=O)c1cc(N2CCC(N3CC4CC4(CO)C3)CC2)c2ncnn2c1)c1cccc(C(F)F)c1F (single isomer, unassigned) [Example cis-E21a] | – | 25 | > 50000 | 102 | 81 | 61 | 216 | – |
| C[C@@H](NC(=O)c1cc(N2CCC(N3CC4CC4(CO)C3)CC2)c2ncnn2c1)c1cccc(C(F)F)c1F (single isomer, unassigned) [Example cis-E21b] | 242 | 38 | > 50000 | – | 78 | 82 | – | 96 |
| C[C@@H](NC(=O)c1cc(N2CCC(NC3COCC3O)CC2)c2ncnn2c1)c1cccc(C(F)(F)F)c1F (single isomer, unassigned) [Example cis-E41b] | 367 | 26 | > 50000 | 95 | 41 | 38 | – | – |
| C[C@@H](NC(=O)c1cc(N2CCC3CCNC3C2)c2ncnn2c1)c1cccc(C(F)(F)F)c1F (single isomer, unassigned) [Example cis-E52b] | 40 | 14 | > 50000 | 98 | 71 | 70 | – | – |
| C[C@@H](NC(=O)c1cc(N2CCC(NC3COCC3O)CC2)c2ncnn2c1)c1cccc(C(F)(F)F)c1F (single isomer, unassigned) [Example trans-E42a] | 183 | 18 | > 50000 | – | 26 | 26 | – | 101 |
